The subject of one test is Runx2. The experiment in a line: Runx2 activity, 6xOSE2-Luc luciferase reporter in transfected C2C12 cells. The test is classed as cell-based, Mouse. The following applies: Mus musculus, 24 hrs, read-out: luciferase activity relative to control set as 1. Summed up: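 C2C12 mouse premyoblasts carrying the 6xOSE2-Luc reporter (six tandem Runx2-binding OSE2 sites in pGL3) switched to 5% FBS DMEM after 24 h and treated with compound at 2.5, 5.0, 10 or 20 μM. After 24 h, lysate luciferase measured by dual-luciferase assay, expressed relative to DMSO vehicle set as 1.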

The next test relates to mice calvarias. The experiment in a line: Mice calvarias loss inhibition, bone loss induced by interleukin-1 in vivo. The following applies: IL-1 collagen sponge, 0.2 mg per mouse intraperitoneally, 7 days, vs vehicle. The method, then: Specifically, 5 to 7 ml of collagen (Cellmatrix type I-A; Wako co., Japan, Cat. No. 637-00653) was poured into petri dish (60×15 mm), and lyophlilized. The lyophlilized collagen sponge was made to the desired size which is appropriate to be implanted, and in order to induce local bone loss of mice, interleukin-1 (Peprotech; London, GB) was diluted with phosphate-buffered-saline solution to 2 μg per one mouse to be treated onto collagen sponge. The collagen sponge treated with interleukin-1 was contacted to the surface of mice carvarias through mice scalp incision, was implanted to 5 mice (5-week-male, ICR strain) in the test group and the control group, respectively, and was sutured. 7 days later, the mice were sacrificed to obtain calvarias. The test group was intraperitoneally injected with the dose of 0.2 mg of the compound obtained in Example 8 per one mouse from the next day of surgery to the day before the sacrifice. The control group was intraperitoneally injected with 100 μl of DMSO. After 7 days, the mice were sacrificed, and the extracted calvarias were washed 3-4 times with phosphate-buffered-saline solution and fixed in 4% paraformaldehyde for 24 hrs. Micro-computed tomography scan (SMX-90CT; Shimadzu, Japan) was performed for the fixed mice calvarias and 3-dimensional image thereof was obtained.
Further, bone mineral content (BMC) was measured by using TRI 3D-BON (RATOC system Engineering Co., Tokyo, Japan) based on the 3-dimensional image (see Volume Graphics, VG studio Max 1.2.1).
Histological studies were conducted in order to investigate the number of osteoclastic cells directly relating to bone loss. Specifically, the calvarias were decalcificated (solution was replaced every 2-3 days) with 12% EDTA (pH 7.2-7.4) for 14 days and embedded in paraffin. TRAP staining (Sigma-Aldrich) was performed on the embedded whole calvarias.
In addition, the whole area of osteoclast which is red-stained, that is, TRAP-positive was shown in graph by using image J program.
The procedure of the Experimental Example 3 was repeated except for using the compound obtained in Example 94 instead of the compound obtained in Example 8, to examine the effect on mice calvarias loss inhibition.
Histological studies were conducted in order to investigate the number of osteoclastic cells directly relating to bone loss. Specifically, the calvarias were decalcificated (solution was replaced every 2-3 days) with 12% EDTA (pH 7.2-7.4) for 14 days and embedded in paraffin.
H-E (Hematotoxin-eosin) and TRAP staining (Sigma-Aldrich) were performed on the embedded whole calvarias. The results are given in FIGS. 4b and 4c, respectively. In addition, the whole area of osteoclast of the test and control group was shown in graph by using image J program.

A further test concerns rats calvarias. Nature of the test: Bone formation in rats calvarias loss site in vivo. The following applies: 8 mm calvarias hole, vs control. The method, then: To investigate the effect of the amide compound according to the present invention on bone formation, bone formation ability of the said compound in the rats calvarias loss site was examined in vivo by using the compounds obtained in Example 8 and 27.
Specifically, the hole of the diameter of 8 mm was made in calavarias of rats by using trephine bur, and the collagen sponge prepared in Experimental Example 3 treated with 0.2 mg of the compound obtained in Example 8 in 15 μl of DMSO was placed at the site of loss. As a control group, the collagen sponge treated with only 100 μl of DMSO was treated at the site of loss. After 6 days from the suture of the calvarias scalp, the rats were sacrificed to obtain calvarias. Micro-computed tomography scan (SMX-90CT; Shimadzu, Japan) was performed and 3-dimensional image thereof was obtained.
Further, bone mineral content (BMC) of the test and control group was measured by using TRI 3D-BON (RATOC system Engineering Co., Tokyo, JP) based on the 3-dimensional image (see, Volume Graphics, VG studio Max 1.2.1). […]
Further, bone mineral content (BMC) of the test and control group was measured by using TRI 3D-BON (RATOC system Engineering Co., Tokyo, JP) based on the 3-dimensional image.

For `COc1cc2c(c(-c3cncnc3)c1OC)CN(Cc1ccc(C(=O)Nc3ccccc3N)cc1)C2=O` [Example 8, N-(2-aminophenyl)-4-((5,6-dimethoxy-1-oxo-4-(pyrimidin-5-yl)isoindolin-2-yl)methyl)benzamide], in the test on Runx2, the fold induction at 2.5 µM worked out at 28.5, the fold induction at 5 µM was found to be 33.4, the fold induction at 10 µM was found to be 36 and the fold induction at 20 µM was 30.1. In addition, in the test with mice calvarias, the “bone loss in calvarias (micro-computed tomography)” value is given as “suppressed”, the “osteoclast (TRAP-positive area)” value is given as “remarkably reduced” and the “whole bone mineral content (BMC)” value is given as “increased”. Further, the “BMC (bone content)” value in the test on rats calvarias (collagen sponge with 0.2 mg compound) is “unexpectedly increased”.
With `Cc1cc(C(=O)NCCCCCC(=O)Nc2ccccc2N)ccc1-c1ccncc1` [Example 89, N-(5-(2-aminophenylcarbamoyl)pentyl)-3-methyl-4-(4-pyridinyl)-benzamide], in the test on Runx2, the fold induction at 2.5 µM was determined as 9.6, the fold induction at 5 µM came out at 17.9, the fold induction at 10 µM came to 23.7 and the fold induction at 20 µM was found to be 25.3.
Take `Cc1cc(C(=O)NCCCCCC(=O)Nc2ccccc2N)ccc1-c1cncnc1` [Example 90, N-(5-(2-aminophenylcarbamoyl)pentyl)-3-methyl-4-(5-pyrimidinyl)-benzamide]: in the test with Runx2, the fold induction at 2.5 µM was 1.7, the fold induction at 5 µM is 3.7, the fold induction at 10 µM was found to be 9.5 and the fold induction at 20 µM was determined as 22.1.
With `Cc1cc(C)cc(-c2ccc(C(=O)NCCCCCC(=O)Nc3ccccc3N)cc2C)c1` [Example 91, N-(5-(2-aminophenylcarbamoyl)pentyl)-3-methyl-4-(3,5-dimethylphenyl)-benzamide], in the test on Runx2, the fold induction at 2.5 µM turned out to be 1.1, the fold induction at 5 µM is 1.5, the fold induction at 10 µM is 2.9 and the fold induction at 20 µM was determined as 3.9.
The matching figures for `Cc1c(C(=O)NCCCCCC(=O)NO)cccc1-c1ccccc1` [Example 92, N-(5-(hydroxycarbamoyl)pentyl)-2-methyl-3-phenylbenzamide]: 4.1, 8.8, 12.4 and 11.5.
For `COc1ccc(-c2cccc(C(=O)NCCCCCC(=O)NO)c2C)c(OC)c1` [Example 93, N-(5-(hydroxycarbamoyl)pentyl)-2-methyl-3-(2,4-dimethoxyphenyl)-benzamide], in the test with Runx2, the fold induction at 2.5 µM stood at 1.3, the fold induction at 5 µM was determined as 1.9, the fold induction at 10 µM stood at 4.8 and the fold induction at 20 µM turned out to be 11.2.
For `Cc1cc(C(=O)NCCCCCC(=O)NO)ccc1-c1ccccc1` [Example 94, N-(5-(hydroxycarbamoyl)pentyl)-3-methyl-4-phenylbenzamide], in the test with Runx2, the fold induction at 2.5 µM stood at 1.6, the fold induction at 5 µM worked out at 3.4, the fold induction at 10 µM stood at 7.5 and the fold induction at 20 µM is 10.7. Besides, in the test with mice calvarias, the “bone loss in calvarias (micro-computed tomography)” value is on record as “suppressed” and the “osteoclast (TRAP-positive area)” value is recorded as “remarkably reduced”. Also, in the test with rats calvarias (collagen sponge with 0.2 mg or 0.5 mg compound), the “BMC (bone content)” value is recorded as “unexpectedly increased”.

The values are drawn from patent US8716326B2, “Isoindolinone derivatives, preparation method thereof and a pharmaceutical composition comprising same” (Korea Research Institute of Chemical Technology, priority 2009, dated 2014).
